Earlier results, collected in paper PMC5306265 (Investigational New Drugs, 2016).

Assays:
pERK = tested on: pERK; set-up: method as in PMID 18390968, PMID 24178622; details: paired tumor biopsies; cited from earlier work
[1] = tested on: BRAF V600E/K-mutant melanoma; set-up: method as in PMID 22663011, PMID 22805292; details: cited from earlier work

Row | Structure (SMILES) | geometric mean pERK reduction (pERK) [%] | response rates [1]
1 | Cn1cnc2c(F)c(Nc3ccc(Br)cc3Cl)c(C(=O)NOCCO)cc21 [selumetinib] | 79 | –
2 | CC(=O)Nc1cccc(-n2c(=O)n(C3CC3)c(=O)c3c(Nc4ccc(I)cc4F)n(C)c(=O)c(C)c32)c1 [trametinib] | – | approximately 20%
